In patent US9006243B2, “HIV inhibiting 6-substituted pyrimidines” (Janssen R&D Ireland, priority 2006, dated 2015):

Tests used:
[1] = system: HIV strain MDR (L100I, K103N, Y181C, E138G, V179I, L2214F, V278V/I and A327A/V in HIV reverse transcriptase); assay: microbe, parasite or virus in culture; type: cell-based, HIV-1; settings: Human immunodeficiency virus 1, 72 h, read-out: MDR pEC50 (−log EC50) (converted)
Excerpt: (§1) Image analysis allows very sensitive detection of viral infection.
“MDR” refers to a strain that contains mutations L100I, K103N, Y181C, E138G, V179I, L2214F, V278V/I and A327A/V in HIV reverse transcriptase.

HIV strain L100I + K103N = assay: microbe, parasite or virus in culture; type: cell-based, HIV-1; settings: Human immunodeficiency virus 1, 72 h, read-out: L100I + K103N pEC50 (−log EC50) (converted)
Excerpt: as §1

HIV strain K103N + Y181C = assay: microbe, parasite or virus in culture; type: cell-based, HIV-1; settings: Human immunodeficiency virus 1, 72 h, read-out: K103N + Y181C pEC50 (−log EC50) (converted)
Excerpt: as §1

HIV strain Y181C = assay: microbe, parasite or virus in culture; type: cell-based, HIV-1; settings: Human immunodeficiency virus 1, 72 h, read-out: Y181C pEC50 (−log EC50) (converted)
Excerpt: as §1

[2] = system: HIV strain IIIB (wild type); assay: microbe, parasite or virus in culture; settings: Human immunodeficiency virus 1, IIIB, 72 h, read-out: IIIB pEC50 (−log EC50) (converted)
Description: Compounds of the invention were tested for their potency against wild type virus and clinically isolated HIV strains harboring one or more mutations associated with resistance to reverse transcriptase inhibitors. Antiviral activity was evaluated using a cellular assay performed according to the following procedure.
The human T-cell line MT4 was engineered with Green Fluorescent Protein (GFP) and a HIV-specific promoter, HIV-1 long terminal repeat (LTR). This cell line, designated MT4 LTR-EGFP, can be used for the in vitro evaluation of anti-HIV activity of investigational compounds. In HIV-1 infected cells, the Tat protein is produced, which upregulates the LTR promotor and eventually leads to stimulation of the GFP reporter production, allowing to measure ongoing HIV-infection fluorometrically.
Analogously, MT4 cells were engineered with GFP and the constitutional cytomegalovirus (CMV) promotor. […] Cytotoxic investigational compounds reduce GFP levels of mock-infected MT4 CMV-EGFP cells.
The ratio of CC50 to EC50 is defined as the selectivity index (SI) and is an indication of the selectivity of the anti-HIV activity of the inhibitor. The ultimate monitoring of HIV-1 infection and cytotoxicity was done using a scanning microscope. Image analysis allows very sensitive detection of viral infection. Measurements were done before cell necrosis, which usually takes place about five days after infection, in particular measurements were performed three days after infection.
The columns IIIB, L100I, etc. in the table list the pEC50 (−log EC50) values against various strains IIIB, L100I, etc.; pSI lists the −log SI values.
Strain IIIB is wild type HIV strain.

Compound | EC50 [1] | EC50 (HIV strain L100I + K103N) | EC50 (HIV strain K103N + Y181C) | EC50 (HIV strain Y181C) | EC50 [2] | melting point
Cc1cc(/C=C/C#N)cc(C)c1Nc1cc(C(O)c2nccs2)nc(Nc2ccc(C#N)cc2)n1 (stereo not shown) [Compound 11] | 692 nM | 6.31 nM | 19.1 nM | 4.07 nM | 1.82 nM | 147 °C
Cc1cc(/C=C/C#N)cc(C)c1Nc1cc(C(=O)NCCC#N)nc(Nc2ccc(C#N)cc2)n1 [Compound 6] | 1860 nM | 40.7 nM | – | 20 nM | 8.91 nM | 250 °C
Cc1cc(/C=C/C#N)cc(C)c1Nc1cc(C(=O)NCCF)nc(Nc2ccc(C#N)cc2)n1 [Compound 5] | 1410 nM | 25.1 nM | 4.37 nM | 6.31 nM | 1.58 nM | > 250 °C
Cc1cc(/C=C/C#N)cc(C)c1Nc1cc(/C=N/O)nc(Nc2ccc(C#N)cc2)n1 [Compound 34] | 501 nM | 12.6 nM | 3.98 nM | 10 nM | 3.98 nM | 220 °C
Cc1cc(/C=C/C#N)cc(C)c1Nc1cc(C(=O)NCc2ccco2)nc(Nc2ccc(C#N)cc2)n1 [Compound 8] | 8130 nM | 85.1 nM | 31.6 nM | 18.6 nM | 5.5 nM | 256 °C
Cc1cc(/C=C/C#N)cc(C)c1Nc1cc(-c2cccnc2)nc(Nc2ccc(C#N)cc2)n1 [Compound 1] | 1780 nM | 115 nM | 19.5 nM | 11 nM | 3.47 nM | 180 °C
Cc1cc(/C=C/C#N)cc(C)c1Nc1cc(C(=O)NCc2ccncc2)nc(Nc2ccc(C#N)cc2)n1 [Compound 7] | 2340 nM | – | 17.8 nM | 16.6 nM | 4.17 nM | 202 °C
